Data on 16 compounds can be found in ChEMBL document CHEMBL1800007, “Synthesis, activity, and structural analysis of novel α-hydroxytropolone inhibitors of human immunodeficiency virus reverse transcriptase-associated ribonuclease H” (J Med Chem, 2011).

Active and inactive are the calls of the source. No cut-off for these calls is given here. Where only a bound is given, the exact number is not on record here.

The target of data set [1] is Human immunodeficiency virus type 1 reverse transcriptase (Human immunodeficiency virus 1, UniProt Q72547). In words: Inhibition of RNase H activity of his6-tagged HIV1 HXB2 reverse transcriptase p66/p51 expressed in Escherichia coli assessed as substrate cleavage at polypurine tract by PAGE-based fluorescent imaging method.
Data set [2] has as its system Human immunodeficiency virus 1. The conditions noted are these: at 20 µM.
Description: Inhibition of DNA dependent DNA polymerase activity of his6-tagged HIV1 HXB2 reverse transcriptase p66 E478Q/p51 mutant expressed in Escherichia coli at 20 uM using fluorescently tagged duplex DNA substrate by PAGE and fluorescent imaging method
Data set [3] deals with Human immunodeficiency virus type 1 reverse transcriptase (Human immunodeficiency virus 1) (UniProt Q72547). Particulars: HXB2, at 20 µM.
Description: Inhibition of DNA dependent DNA polymerase activity of his6-tagged HIV1 HXB2 reverse transcriptase p66/p51 expressed in Escherichia coli at 20 uM using fluorescently tagged duplex DNA substrate by PAGE and fluorescent imaging method
The test system of data set [4] is Human immunodeficiency virus 1. Particulars: at 20 µM. This is another data set of the same source.
Description: Inhibition of DNA dependent DNA polymerase activity of his6-tagged HIV1 HXB2 reverse transcriptase p66 D549A/p51 mutant expressed in Escherichia coli at 20 uM using fluorescently tagged duplex DNA substrate by PAGE and fluorescent imaging method
The subject of data set [5] is Human immunodeficiency virus 1. In words: Antiviral activity against HIV1 RF infected in human CEM-SS cells assessed as protection against virus-induced cytopathic effect. Format: functional, organism-based. A general note: Protection from cytopathic effect is a common read-out in antiviral testing.
The nature of data set [6]: Therapeutic index, CC50 for human CEM-SS cells to EC50 for HIV1 RF. It counts as cell-based.
Data set [7] deals with CEM-SS. In words: (§1) Cytotoxicity against human CEM-SS cells. It counts as cell-based. The conditions noted are these: cem-ss.
Data set [8] can be described thus: as §1. The conditions noted are these: CEM-SS cells. Format: cell-based.
Setting [9] is: Human immunodeficiency virus 1, RF, CEM-SS, read-out: EC50.

With `C=C(C)[C@H]1CCc2c(c(C)cc(O)c(=O)c2O)C1`, the IC50 in data set [1] is 0.6 µM. In addition, the inhibition result in data set [2], in data set [3] and in data set [4] was “inactive” throughout. In addition, the EC50 result in data set [5] (cem-ss) was “Not Active”.
`Cc1cc(O)c(=O)c(O)c2c1C[C@@H](C(C)(O)CN1CCCCC1)CC2` (mixture of isomers): in data set [1], the IC50 is 0.82 µM. Moreover, the inhibition entry in data set [2] and in data set [4] was “inactive” each time. The selectivity ratio in data set [6] was 4.9. In addition, the CC50 in data set [7] was more than 50 µM. In addition, the EC50 in data set [5] (setting [9]) was determined as 10.2 µM.
With `Cc1cc(O)c(=O)c(O)c2c1C[C@@H](C(C)(O)Cn1ccnc1)CC2` (mixture of isomers), the inhibition entry in data set [2], in data set [3] and in data set [4] was “inactive” throughout. Further, the CC50 in data set [7] was more than 50 µM. Further, in data set [5] (setting [9]), the EC50 is 42.1 µM.
In the case of `CCN(CC)CC(C)(O)[C@H]1CCc2c(c(C)cc(O)c(=O)c2O)C1` (mixture of isomers), the IC50 in data set [1] turned out to be 0.5 µM. The inhibition entry in data set [2], in data set [3] and in data set [4] was “inactive” throughout. The CC50 in data set [7] was more than 50 µM. The “inhibition (INH)” value in data set [5] was less than 50%.
`Cc1cc(O)c(=O)c(O)c2c1C[C@@H](C(C)(O)CNCc1ccccc1F)CC2` (mixture of isomers): the IC50 in data set [1] amounted to 1.2 µM. Further, the inhibition result in data set [2] and in data set [4] was “inactive” in each case. The CC50 in data set [7] is more than 50 µM. Further, the EC50 entry in data set [5] (cem-ss) is given as “Not Active”.
`Cc1cc(O)c(=O)c(O)c2c1C[C@@H](C(C)(O)CNc1ccccc1)CC2` (mixture of isomers): the IC50 in data set [1] is 1.2 µM. Moreover, the inhibition entry in data set [2] and in data set [4] was “Active” throughout. In data set [7], the midpoint of cytotoxicity, the CC50, lay at 31.7 µM. In data set [5] (setting [9]), the EC50 worked out at 7.4 µM.
Turning to `CCSCC(C)(O)[C@H]1CCc2c(c(C)cc(O)c(=O)c2O)C1` (mixture of isomers), the half-inhibitory concentration (IC50) in data set [1] was found to be 0.38 µM. The inhibition entry in data set [2] and in data set [4] was “inactive” in each case. Further, the CC50 in data set [7] came to 25.8 µM. Moreover, in data set [5], the “inhibition (INH)” value is less than 50%.
On to `Cc1cc(O)c(=O)c(O)c2c1C[C@@H](C(C)(O)CSc1ccccc1)CC2` (mixture of isomers), for which the IC50 in data set [1] amounted to 0.93 µM. For the same compound, the inhibition entry in data set [2] and in data set [4] was “inactive” throughout. The same compound came in with a CC50 in data set [7] of 17.8 µM. Besides, the EC50 in data set [5] (setting [9]) came out at 11.5 µM.
Regarding `Cc1cc(O)c(=O)c(O)c2c1C[C@@H](C(C)(O)CSCc1ccccc1)CC2` (mixture of isomers), in data set [1], the IC50 was determined as 1.3 µM. Besides, the inhibition entry in data set [2] and in data set [4] was “inactive” each time. For the same compound, the midpoint of cytotoxicity in data set [7], the CC50, lay at 17.4 µM. In addition, in data set [5] (setting [9]), the 50% effective concentration (EC50) was 4.2 µM.
`CCS(=O)(=O)CC(C)(O)[C@H]1CCc2c(c(C)cc(O)c(=O)c2O)C1` (mixture of isomers): the half-inhibitory concentration (IC50) in data set [1] amounted to 0.24 µM. Besides, the inhibition entry in data set [2] and in data set [4] was “inactive” each time. Further, it took 10.4 µM to reach half-maximal cytotoxicity in data set [7] (CC50). In addition, in data set [5], the “inhibition (INH)” value was less than 50%.
With `Cc1cc(O)c(=O)c(O)c2c1C[C@@H](C(C)(O)C[S+]([O-])c1ccccc1)CC2` (mixture of isomers), in data set [1], the IC50 is 1.3 µM. The inhibition result in data set [2] and in data set [4] was “Active” each time. In data set [7], this compound gave a CC50 of more than 50 µM. Moreover, the EC50 in data set [5] (setting [9]) stood at 14.5 µM.
Consider `Cc1cc(O)c(=O)c(O)c2c1C[C@@H](C(C)(O)CS(=O)(=O)c1ccccc1)CC2` (mixture of isomers), for which, in data set [1], the IC50 was 0.51 µM. Further, the inhibition entry in data set [2] and in data set [4] was “inactive” in each case. Besides, in data set [7], the CC50 was more than 50 µM. The EC50 in data set [5] (setting [9]) was determined as 21.2 µM.
Turning to `CC(=O)Oc1cc(C)c2c(c(OC(C)=O)c1=O)CC[C@H](C(C)(O)CO)C2` (mixture of isomers), the IC50 in data set [1] is 1.9 µM. Besides, the inhibition result in data set [2], in data set [3] and in data set [4] was “inactive” throughout. The compound further displayed a CC50 in data set [8] of more than 50 µM. For the same compound, the EC50 result in data set [5] (cem-ss) is given as “Not Active”.
Consider `Cc1cc(O)c(=O)c(O)c2c1C[C@@H](C(C)O)CC2` (mixture of isomers), for which the IC50 in data set [1] was 0.68 µM. For the same compound, the inhibition entry in data set [2] and in data set [4] was “inactive” in each case. In data set [7], this compound yielded a CC50 of 26.1 µM. Further, the concentration for a half-maximal effect (EC50) in data set [5] (setting [9]) was found to be 6.9 µM.
As for `Cc1cc(O)c(=O)c(O)c2c1C[C@@H](C(C)NCc1ccccc1)CC2` (mixture of isomers), in data set [1], the IC50 worked out at 0.96 µM. The inhibition entry in data set [2] and in data set [4] was “inactive” in each case. Also, the CC50 in data set [7] was 16.7 µM. For the same compound, the EC50 in data set [5] (setting [9]) was determined as 10.6 µM.
With `CC(C)c1ccc(O)c(=O)c(O)c1` [BETA-THUJAPLICINOL], the IC50 in data set [1] turned out to be 0.21 µM. Besides, the inhibition result in data set [2], in data set [3] and in data set [4] was “inactive” in each case. Besides, in data set [8], the CC50 worked out at 2.3 µM. The EC50 entry in data set [5] (cem-ss) is reported as “Not Active”.

The term IC50 denotes the concentration that inhibits the measured activity by half. In general, EC50 refers to the concentration that produces a half-maximal response. For orientation: CC50 means the concentration that lowers cell viability or growth by half. Higher therefore signals better tolerance by the cells.
